This note sets out measurements from patent publication US20230203098A1, “HUMAN TRANSFERRIN RECEPTOR BINDING PEPTIDE” (priority 2020, published 2023).

Structures are written as SMILES. Where two headings read alike, the source gives them in different places. Where a SMILES comes first, the peptide text is derived from it. Bridges are numbered along the chain shown (N, C = ends). [ ]: non-standard residue; d: D form. NMePhe(3-Cl) = CN[C@@H](Cc1cccc(Cl)c1)C(=O)O; NMeW = CN[C@@H](Cc1c[nH]c2ccccc12)C(=O)O; NMeY = CN[C@@H](Cc1ccc(O)cc1)C(=O)O

In this test the target is transferrin receptor (hTfR) (Homo sapiens, UniProt P02786). Briefly: Intermolecular interaction evaluation test between transferrin receptor (hTfR) and peptide by surface plasmon resonance (SPR). It is filed as binding. In a few lines:
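Receptor was Ni-captured and EDC/NHS-fixed on an NTA chip; running buffer HEPES pH 8.0 with NaCl, Tween 20, BSA and 1.0% DMSO.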
Background: SPR reads the build-up and loss of mass on a sensor chip optically.

[1] abbreviates: surface plasmon resonance, peptide vs hTfR, read-out: KD value, hTfR binding by SPR (class symbol).
[2] abbreviates: surface plasmon resonance, hTfR, read-out: KD value for hTfR by SPR (class symbol).
Where [3] appears, read: binding to hTfR by SPR, Table 2 peptides, read-out: KD value (SPR) class.

Sequence of transferrin receptor (hTfR) (P02786 whole entry): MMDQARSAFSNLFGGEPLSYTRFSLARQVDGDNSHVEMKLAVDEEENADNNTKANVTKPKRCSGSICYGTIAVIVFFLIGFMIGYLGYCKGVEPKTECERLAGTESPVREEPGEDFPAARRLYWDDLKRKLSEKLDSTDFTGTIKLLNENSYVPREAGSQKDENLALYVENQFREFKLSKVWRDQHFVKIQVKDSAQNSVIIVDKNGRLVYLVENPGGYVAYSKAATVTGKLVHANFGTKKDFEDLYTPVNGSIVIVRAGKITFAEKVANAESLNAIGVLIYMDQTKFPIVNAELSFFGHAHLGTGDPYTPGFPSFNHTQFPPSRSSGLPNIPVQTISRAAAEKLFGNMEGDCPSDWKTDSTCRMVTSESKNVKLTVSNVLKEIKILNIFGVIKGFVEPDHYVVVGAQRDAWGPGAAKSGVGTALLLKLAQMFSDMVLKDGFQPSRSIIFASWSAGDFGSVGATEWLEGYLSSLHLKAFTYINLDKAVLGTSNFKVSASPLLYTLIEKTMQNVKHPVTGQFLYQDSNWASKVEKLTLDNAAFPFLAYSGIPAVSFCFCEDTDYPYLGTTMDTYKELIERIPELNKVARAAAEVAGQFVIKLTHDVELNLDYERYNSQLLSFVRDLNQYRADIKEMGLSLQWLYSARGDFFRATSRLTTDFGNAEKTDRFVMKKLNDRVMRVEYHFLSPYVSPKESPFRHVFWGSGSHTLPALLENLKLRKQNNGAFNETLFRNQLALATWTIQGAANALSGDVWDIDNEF

For the compound `CC[C@H](C)[C@@H]1NC(=O)[C@H](Cc2ccc(OC)cc2)NC(=O)[C@H](Cc2ccc(O)cc2)NC(=O)[C@H](CC(N)=O)NC(=O)[C@H](Cc2c[nH]c3ccccc23)NC(=O)[C@H](C(C)C)NC(=O)[C@H](Cc2cccc(Cl)c2)N(C)C(=O)[C@H](C(C)C)NC(=O)[C@H](C)NC(=O)CSC[C@@H](C(=O)NCCOCCOCCOCCOCCC(N)=O)NC(=O)[C@H](Cc2ccc(O)cc2)N(C)C(=O)[C@H](Cc2ccccc2)NC(=O)[C@H](CCCNC(=N)N)NC(=O)[C@H](CCCCN)NC(=O)[C@H]([C@@H](C)CC)NC1=O` [compound 503], the Kd (commonly a measure of binding affinity in units of concentration) (SPR, hTfR, class symbols A-D, read-out: KD (column without head, continuation of the table series)) was under 1 nM. Turning to `CC[C@H](C)[C@@H]1NC(=O)[C@H](Cc2ccc(O)cc2)NC(=O)[C@H](Cc2ccc(O)cc2)NC(=O)[C@H](CC(N)=O)NC(=O)[C@H](Cc2c[nH]c3ccccc23)NC(=O)[C@H](C(C)C)NC(=O)[C@H](Cc2ccccc2)N(C)C(=O)[C@H](C(C)C)NC(=O)[C@H](C)NC(=O)CSC[C@@H](C(N)=O)NC(=O)[C@H](Cc2ccc(O)cc2)N(C)C(=O)[C@H](Cc2ccc(O)cc2)NC(=O)[C@H](CCCNC(=N)N)NC(=O)[C@H](CCCCN)NC(=O)[C@H]([C@@H](C)CC)NC1=O` [compound 293], the Kd under setting [1] lay within 1 to 100 nM. Turning to `CC[C@H](C)[C@@H]1NC(=O)[C@H](Cc2ccc(OC)cc2)NC(=O)[C@H](Cc2ccc(O)cc2)NC(=O)[C@H](CC(N)=O)NC(=O)[C@H](Cc2c[nH]c3ccccc23)N(C)C(=O)[C@H](C(C)C)NC(=O)[C@H](Cc2cccc(Cl)c2)N(C)C(=O)[C@H](CCC(=O)O)NC(=O)[C@H](C)NC(=O)CSC[C@@H](C(N)=O)NC(=O)[C@H](Cc2ccc(O)cc2)N(C)C(=O)[C@H](Cc2ccccc2)NC(=O)[C@@H](CCCNC(=N)N)NC(=O)[C@H](CCCCN)NC(=O)[C@H]([C@@H](C)CC)NC1=O` [compound 228] ({CH2CO}-AE[NMePhe(3-Cl)]V[NMeW]NYY(Me)IIK[dR]F[NMeY]C-NH2; thioether N-15), the Kd (SPR, peptides, linker-added peptides and FITC conjugates, Patent ID 203-230, read-out: KD) is 1 to 100 nM. As to `CC[C@H](C)[C@@H]1NC(=O)[C@H](Cc2ccc(O)cc2)NC(=O)[C@H](Cc2ccc(O)cc2)NC(=O)[C@H](CC(N)=O)NC(=O)[C@H](Cc2c[nH]c3ccccc23)N(C)C(=O)[C@H](C(C)C)NC(=O)[C@H](Cc2cccc(Cl)c2)N(C)C(=O)[C@H](C(C)C)NC(=O)[C@H](C)NC(=O)CSC[C@@H](C(=O)NCCOCCOCCOCCOCCC(N)=O)NC(=O)[C@H](Cc2ccc(O)cc2)N(C)C(=O)[C@H](Cc2ccccc2)NC(=O)[C@@H](CCCNC(=N)N)NC(=O)C(C)(C)NC(=O)[C@H]([C@@H](C)CC)NC1=O` [compound 322], the Kd under setting [1] lay within 1 to 100 nM. Regarding `CC[C@H](C)[C@@H]1NC(=O)[C@H](Cc2ccc(OC)cc2)NC(=O)[C@H](Cc2ccc(O)cc2)NC(=O)[C@H](CC(N)=O)NC(=O)[C@H](Cc2c[nH]c3ccccc23)N(C)C(=O)[C@H](C(C)C)NC(=O)[C@H](Cc2cccc(Cl)c2)N(C)C(=O)[C@H](C(C)C)NC(=O)[C@H](C)NC(=O)CSC[C@@H](C(N)=O)NC(=O)[C@H](Cc2ccc(O)cc2)N(C)C(=O)[C@H](Cc2cccc(OC)c2)NC(=O)[C@@H](CCCNC(=N)N)NC(=O)[C@H](CCCNC(=N)N)NC(=O)[C@H]([C@@H](C)CC)NC1=O` [compound 394], the Kd under setting [2] was 1 to 100 nM.

Take `CC[C@H](C)[C@@H]1NC(=O)[C@H](Cc2ccc(O)cc2)NC(=O)[C@H](Cc2ccc(O)cc2)NC(=O)[C@H](CC(N)=O)NC(=O)[C@H](Cc2c[nH]c3ccccc23)N(C)C(=O)[C@H](C(C)C)NC(=O)[C@H](Cc2ccccc2)N(C)C(=O)[C@H](C(C)C)NC(=O)[C@H](C)NC(=O)CSC[C@@H](C(=O)NCC(=O)NCC(=O)N[C@@H](CCCNC(=N)N)C(=O)NCC(=O)N[C@@H](CCCNC(=N)N)C(=O)N[C@@H](CO)C(=O)N[C@@H](CCCCNC(=O)C2CCC(CN3C(=O)C=CC3=O)CC2)C(N)=O)NC(=O)[C@H](Cc2ccc(O)cc2)N(C)C(=O)[C@H](Cc2ccc(O)cc2)NC(=O)[C@H](CCCNC(=N)N)NC(=O)[C@H](CCCNC(=N)N)NC(=O)[C@H]([C@@H](C)CC)NC1=O` (some centres unmarked) [compound 198]: under “hTfR binding by SPR, hTfR No. 894 variant peptides, linker-added peptides and payload conjugates (Table 2), read-out: KD value obtained from the SPR measurement”, the Kd lay within 1 to 100 nM. Consider `CC[C@H](C)[C@@H]1NC(=O)[C@H](Cc2ccc(O)cc2)NC(=O)[C@H](Cc2ccc(O)cc2)NC(=O)[C@H](CC(N)=O)NC(=O)[C@H](Cc2c[nH]c3ccccc23)NC(=O)[C@H](C(C)C)NC(=O)[C@H](Cc2ccccc2)NC(=O)[C@H](C(C)C)NC(=O)[C@H](C)NC(=O)CCC[C@@H](C(N)=O)NC(=O)[C@H](Cc2ccc(O)cc2)N(C)C(=O)[C@H](Cc2ccc(O)cc2)NC(=O)[C@H](CCCNC(=N)N)NC(=O)[C@H](CCCNC(=N)N)NC(=O)[C@H]([C@@H](C)CC)NC1=O` [compound 408], for which the Kd under setting [2] fell in the range of 1 to 100 nM. As to `CC[C@H](C)[C@@H]1NC(=O)[C@H](Cc2ccc(O)cc2)NC(=O)[C@H](Cc2ccc(O)cc2)NC(=O)[C@H](CC(N)=O)NC(=O)[C@H](Cc2c[nH]c3ccccc23)NC(=O)[C@H](C(C)C)NC(=O)[C@H](Cc2ccccc2)NC(=O)[C@H](C(C)C)NC(=O)[C@H](C)NC(=O)CSC[C@@H](C(N)=O)NC(=O)[C@H](Cc2ccc(O)cc2)N(C)C(=O)[C@H](Cc2ccc(O)cc2)NC(=O)[C@H](CCCNC(=N)N)NC(=O)[C@H](CCCNC(=N)N)NC(=O)[C@H](CCCCN)NC1=O` [compound 249] ({CH2CO}-AVFVWNYYIKRRY[NMeY]C-NH2; thioether N-15), the Kd under setting [3] is under 1 nM. In the case of `CC[C@H](C)[C@@H]1NC(=O)[C@H](Cc2ccc(OC)cc2)NC(=O)[C@H](Cc2ccc(O)cc2)NC(=O)[C@H](CC(N)=O)NC(=O)[C@H](Cc2c[nH]c3ccccc23)N(C)C(=O)[C@H](C(C)C)NC(=O)[C@H](Cc2cccc(Cl)c2)N(C)C(=O)[C@H](C(C)C)NC(=O)[C@H](C)NC(=O)CSC[C@@H](C(=O)NCC(=O)NCC(=O)NCC(=O)NCC(=O)N[C@@H](CO)C(=O)N[C@@H](CO)C(=O)N[C@@H](CS)C(N)=O)NC(=O)[C@H](Cc2ccc(O)cc2)N(C)C(=O)[C@H](Cc2ccccc2)NC(=O)[C@@H](CCCNC(=N)N)NC(=O)[C@H](CCCNC(=N)N)NC(=O)[C@H](CCC(=O)O)NC1=O` [compound 342], the Kd under setting [1] lay within 1 to 100 nM. As for `CC[C@H](C)[C@@H]1NC(=O)[C@H](Cc2ccc(OC)cc2)NC(=O)[C@H](Cc2ccc(O)cc2)NC(=O)[C@H](CC(N)=O)NC(=O)[C@H](Cc2c[nH]c3ccccc23)N(C)C(=O)[C@H](C(C)C)NC(=O)[C@H](Cc2cccc(Cl)c2)N(C)C(=O)[C@H](CCC(=O)O)NC(=O)[C@H](C)NC(=O)CSC[C@@H](C(=O)NCC(=O)NCC(=O)NCC(=O)NCC(=O)N[C@@H](CO)C(=O)N[C@@H](CO)C(=O)N[C@@H](CS)C(N)=O)NC(=O)[C@H](Cc2ccc(O)cc2)N(C)C(=O)[C@H](Cc2ccccc2)NC(=O)[C@@H](CCCNC(=N)N)NC(=O)[C@H](CCCNC(=N)N)NC(=O)[C@H]([C@@H](C)CC)NC1=O` [compound 234], the Kd was 1 to 100 nM.

As to `CC[C@H](C)[C@@H]1NC(=O)[C@H](Cc2ccc(OC)cc2)NC(=O)[C@H](Cc2ccc(O)cc2)NC(=O)[C@H](CC(N)=O)NC(=O)[C@H](Cc2c[nH]c3ccccc23)N(C)C(=O)[C@H](C(C)C)NC(=O)[C@H](Cc2cccc(Cl)c2)N(C)C(=O)[C@H](CCCCNC(=N)N)NC(=O)[C@H](C)NC(=O)CSC[C@@H](C(N)=O)NC(=O)[C@H](Cc2ccc(O)cc2)N(C)C(=O)[C@H](Cc2ccccc2)NC(=O)[C@@H](CCCNC(=N)N)NC(=O)[C@H](CCCNC(=N)N)NC(=O)[C@H]([C@@H](C)CC)NC1=O` [compound 242], the Kd under setting [3] was in the range of 1 to 100 nM.
